Measured values published in US9422293B2 (priority 2006, dated 2016).
Where a name gives a salt, the structure may show the parent alone.

Biological target: rat TRPV1 (Rattus norvegicus (Rat), UniProt O35433)
Conditions: read-out: Rat IC50

rat TRPV1, sequence (O35433 whole entry): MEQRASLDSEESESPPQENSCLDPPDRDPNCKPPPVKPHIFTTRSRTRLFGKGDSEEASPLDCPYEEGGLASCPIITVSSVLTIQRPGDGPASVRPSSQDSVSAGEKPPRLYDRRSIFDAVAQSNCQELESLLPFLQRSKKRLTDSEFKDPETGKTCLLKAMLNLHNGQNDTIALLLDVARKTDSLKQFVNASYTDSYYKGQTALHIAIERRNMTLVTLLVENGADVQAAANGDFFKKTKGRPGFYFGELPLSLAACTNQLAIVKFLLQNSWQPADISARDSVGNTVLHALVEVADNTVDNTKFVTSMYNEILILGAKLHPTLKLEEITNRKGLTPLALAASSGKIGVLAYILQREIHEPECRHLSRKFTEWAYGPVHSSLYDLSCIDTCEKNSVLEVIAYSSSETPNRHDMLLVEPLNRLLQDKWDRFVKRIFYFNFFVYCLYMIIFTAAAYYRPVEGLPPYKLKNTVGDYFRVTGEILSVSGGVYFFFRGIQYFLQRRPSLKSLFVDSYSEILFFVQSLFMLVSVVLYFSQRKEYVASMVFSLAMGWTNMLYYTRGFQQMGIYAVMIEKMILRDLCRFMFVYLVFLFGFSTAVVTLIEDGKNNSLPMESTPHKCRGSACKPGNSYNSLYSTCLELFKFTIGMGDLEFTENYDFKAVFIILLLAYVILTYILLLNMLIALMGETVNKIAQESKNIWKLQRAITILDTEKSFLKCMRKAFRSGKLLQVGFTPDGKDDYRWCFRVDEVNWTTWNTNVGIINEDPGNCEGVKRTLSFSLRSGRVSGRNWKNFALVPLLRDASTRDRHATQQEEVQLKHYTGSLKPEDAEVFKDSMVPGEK

Structure (SMILES) | IC50
FC(F)(F)c1ccc(Nc2nc(-c3ccncc3)nc3c2CCN(c2ncccc2C(F)(F)F)CC3)cn1 [Example 170, 2-Pyridin-4-yl-7-[3-(trifluoromethyl)pyridin-2-yl]-N-[6-(trifluoromethyl)pyridin-3-yl]-6,7,8,9-tetrahydro-5H-pyrimido[4,5-d]azepin-4-amine trifluoroacetic acid salt] | 60 nM
FC(F)(F)c1ccc(Nc2nc(-c3cccnc3)nc3c2CCN(c2ncccc2C(F)(F)F)CC3)cc1 [Example 176, 2-Pyridin-3-yl-N-[4-(trifluoromethyl)phenyl]-7-[3-(trifluoromethyl)pyridin-2-yl]-6,7,8,9-tetrahydro-5H-pyrimido[4,5-d]azepin-4-amine trifluoroacetic acid salt] | 810 nM
CC(C)c1nc2c(c(Nc3ccc(C(F)(F)F)cc3)n1)CCN(c1ncc(C(=O)O)cc1Cl)CC2 [Example 288, 5-Chloro-6-[2-(1-methylethyl)-4-{[4-(trifluoromethyl)phenyl]amino}-5,6,8,9-tetrahydro-7H-pyrimido[4,5-d]azepin-7-yl]pyridine-3-carboxylic acid trifluoroacetic acid salt] | 2020 nM
COCc1nc2c(c(Nc3ccc(C(C)(C)C#N)cc3)n1)CCN(c1ncccc1C(F)(F)F)CC2 [Example 347, 2-Methyl-2-[4-({2-[(methyloxy)methyl]-7-[3-(trifluoromethyl)pyridin-2-yl]-6,7,8,9-tetrahydro-5H-pyrimido[4,5-d]azepin-4-yl}amino)phenyl]propanenitrile trifluoroacetic acid salt] | 1320 nM
CC(C)N1CCN(c2nc3c(c(Nc4ccc(C(F)(F)F)cc4)n2)CCN(c2ncccc2C(F)(F)F)CC3)CC1 [Example 60B, [2-(4-Isopropyl-piperazin-1-yl)-7-(3-trifluoromethyl-pyridin-2-yl)-6,7,8,9-tetrahydro-5H-pyrimido[4,5-d]azepin-4-yl]-(4-trifluoromethyl-phenyl)-amine trifluoroacetic acid salt] | 140 nM
Cc1cncnc1N1CCc2ncnc(Nc3ccc(C(C)(C)C)cc3)c2CC1 [Example 38, (4-tert-Butyl-phenyl)-[7-(5-methyl-pyrimidin-4-yl)-6,7,8,9-tetrahydro-5H-pyrimido[4,5-d]azepin-4-yl]-amine] | 1400 nM
CC(C)c1nc2c(c(Nc3ccc(C(C)(C)C#N)cc3)n1)CCN(c1ncccc1C(F)(F)F)CC2 [Example 129, 2-Methyl-2-[4-({2-(1-methylethyl)-7-[3-(trifluoromethyl)pyridin-2-yl]-6,7,8,9-tetrahydro-5H-pyrimido[4,5-d]azepin-4-yl}amino)phenyl]propanenitrile] | 230 nM
FC1(F)CN(c2nc3c(c(Nc4ccc(C(F)(F)F)cc4)n2)CCN(c2ncccc2C(F)(F)F)CC3)C1 [Example 241, 2-(3,3-Difluoroazetidin-1-yl)-N-[4-(trifluoromethyl)phenyl]-7-[3-(trifluoromethyl)pyridin-2-yl]-6,7,8,9-tetrahydro-5H-pyrimido[4,5-d]azepin-4-amine] | 170 nM
COC[C@@H]1CCCN1c1nc2c(c(Nc3ccc(C(F)(F)F)cc3)n1)CCN(c1ncccc1C(F)(F)F)CC2 [Example 215, 2-{(2S)-2-[(Methyloxy)methyl]pyrrolidin-1-yl}-N-[4-(trifluoromethyl)phenyl]-7-[3-(trifluoromethyl)pyridin-2-yl]-6,7,8,9-tetrahydro-5H-pyrimido[4,5-d]azepin-4-amine trifluoroacetic acid salt] | 10 nM
COC(=O)c1ccc(Nc2nc(C(C)C)nc3c2CCN(c2ncccc2C(F)(F)F)CC3)cc1 [Example 103, 4-[2-Isopropyl-7-(3-trifluoromethyl-pyridin-2-yl)-6,7,8,9-tetrahydro-5H-pyrimido[4,5-d]azepin-4-ylamino]-benzoic acid methyl ester] | 340 nM
CC(C)c1nc2c(c(Nc3ccc(C(O)C(F)(F)F)cc3)n1)CCN(c1ncccc1C(F)(F)F)CC2 (stereo not drawn) [Example 183, 2,2,2-Trifluoro-1-[4-({2-(1-methylethyl)-7-[3-(trifluoromethyl)pyridin-2-yl]-6,7,8,9-tetrahydro-5H-pyrimido[4,5-d]azepin-4-yl}amino)phenyl]ethanol] | 2370 nM
Cc1cc(N)cnc1N1CCc2nc(C(C)C)nc(Nc3ccc(C(F)(F)F)cc3)c2CC1 [Example 83, [7-(5-Amino-3-methyl-pyridin-2-yl)-2-isopropyl-6,7,8,9-tetrahydro-5H-pyrimido[4,5-d]azepin-4-yl]-(4-trifluoromethyl-phenyl)-amine] | 990 nM
CC(C)c1nc2c(c(NCc3ccc(C(F)(F)F)nc3)n1)CCN(c1ncccc1C(F)(F)F)CC2 [Example 116, 2-(1-Methylethyl)-7-[3-(trifluoromethyl)pyridin-2-yl]-N-{[6-(trifluoromethyl)pyridin-3-yl]methyl}-6,7,8,9-tetrahydro-5H-pyrimido[4,5-d]azepin-4-amine] | 7030 nM
CC(C)c1nc2c(c(Nc3ccc(C(C)(C)C)cc3)n1)CCN(c1ncc(N)cc1C(F)(F)F)CC2 [Example 201, 7-[5-Amino-3-(trifluoromethyl)pyridin-2-yl]-N-[4-(1,1-dimethylethyl)phenyl]-2-(1-methylethyl)-6,7,8,9-tetrahydro-5H-pyrimido[4,5-d]azepin-4-amine] | 320 nM
CSc1ccc(Nc2nc(N3CCCCC3)nc3c2CCN(c2ncccc2C(F)(F)F)CC3)cc1 [Example 160, N-[4-(Methylsulfanyl)phenyl]-2-piperidin-1-yl-7-[3-(trifluoromethyl)pyridin-2-yl]-6,7,8,9-tetrahydro-5H-pyrimido[4,5-d]azepin-4-amine] | 100 nM
O=S(=O)(c1ccc(Nc2nc(SC3CCCCC3)nc3c2CCN(c2ncccc2C(F)(F)F)CC3)cc1)C(F)(F)F [Example 360, 2-(Cyclohexylsulfanyl)-7-[3-(trifluoromethyl)pyridin-2-yl]-N-{4-[(trifluoromethyl)sulfonyl]phenyl}-6,7,8,9-tetrahydro-5H-pyrimido[4,5-d]azepin-4-amine] | 250 nM
CCOc1nc2c(c(Nc3ccc(C(F)(F)F)cc3)n1)CCN(c1ncccc1C(F)(F)F)CC2 [Example 345, 2-(Ethyloxy)-N-[4-(trifluoromethyl)phenyl]-7-[3-(trifluoromethyl)pyridin-2-yl]-6,7,8,9-tetrahydro-5H-pyrimido[4,5-d]azepin-4-amine trifluoroacetic acid salt] | 190 nM
FC(F)(F)c1cccnc1N1CCc2nc(N3CCCCC3)nc(NCc3ccc(Cl)c(Cl)c3)c2CC1 [Example 251, N-[(3,4-Dichlorophenyl)methyl]-2-piperidin-1-yl-7-[3-(trifluoromethyl)pyridin-2-yl]-6,7,8,9-tetrahydro-5H-pyrimido[4,5-d]azepin-4-amine] | 1980 nM
CC(C)c1nc2c(c(NCc3ccc(C(F)(F)F)cc3)n1)CCN(c1ncccc1C(F)(F)F)CC2 [Example 117, 2-(1-Methylethyl)-N-{[4-(trifluoromethyl)phenyl]methyl}-7-[3-(trifluoromethyl)pyridin-2-yl]-6,7,8,9-tetrahydro-5H-pyrimido[4,5-d]azepin-4-amine] | 13500 nM
Cc1cc(C(F)(F)F)ccc1Nc1nc(SCC(C)O)nc2c1CCN(c1ncccc1C(F)(F)F)CC2 (stereo not drawn) [Example 367, 1-[(4-{[2-Methyl-4-(trifluoromethyl)phenyl]amino}-7-[3-(trifluoromethyl)pyridin-2-yl]-6,7,8,9-tetrahydro-5H-pyrimido[4,5-d]azepin-2-yl)sulfanyl]propan-2-ol] | > 6670 nM
Cc1cc(C(F)(F)F)ccc1Nc1nc(SC(C)C)nc2c1CCN(c1ncccc1C(F)(F)F)CC2 [Example 366, 2-[(1-Methylethyl)sulfanyl]-N-[2-methyl-4-(trifluoromethyl)phenyl]-7-[3-(trifluoromethyl)pyridin-2-yl]-6,7,8,9-tetrahydro-5H-pyrimido[4,5-d]azepin-4-amine] | 130 nM
FC(F)(F)c1ccc(Nc2nc(N3CCC3)nc3c2CCN(c2ncccc2C(F)(F)F)CC3)cc1 [Example 56B, [2-Azetidin-1-yl-7-(3-trifluoromethyl-pyridin-2-yl)-6,7,8,9-tetrahydro-5H-pyrimido[4,5-d]azepin-4-yl]-(4-trifluoromethyl-phenyl)-amine trifluoroacetic acid salt] | 64 nM
CN(C)c1nc2c(c(Nc3ccc(Cl)cc3)n1)CCN(c1ncccc1C(F)(F)F)CC2 [Example 50B, N^4-(4-Chloro-phenyl)-N^2,N^2-dimethyl-7-(3-trifluoromethyl-pyridin-2-yl)-6,7,8,9-tetrahydro-5H-pyrimido[4,5-d]azepine-2,4-diamine trifluoroacetic acid salt] | 910 nM
CC(C)(C)c1ccc(Nc2nc(-c3ccncc3)nc3c2CCN(c2ncccc2C(F)(F)F)CC3)cc1 [Example 168, N-[4-(1,1-Dimethylethyl)phenyl]-2-pyridin-4-yl-7-[3-(trifluoromethyl)pyridin-2-yl]-6,7,8,9-tetrahydro-5H-pyrimido[4,5-d]azepin-4-amine trifluoroacetic acid salt] | 30 nM
FC(F)(F)c1ccc(Nc2nc(N3CCCCC3)nc3c2CCN(c2ncccc2C(F)(F)F)CC3)cn1 [Example 234, 2-Piperidin-1-yl-7-[3-(trifluoromethyl)pyridin-2-yl]-N-[6-(trifluoromethyl)pyridin-3-yl]-6,7,8,9-tetrahydro-5H-pyrimido[4,5-d]azepin-4-amine trifluoroacetic acid salt] | 80 nM
CC(O)CSc1nc2c(c(Nc3ccc(S(=O)(=O)C(F)(F)F)cc3)n1)CCN(c1ncccc1C(F)(F)F)CC2 (stereo not drawn) [Example 362, 1-({7-[3-(Trifluoromethyl)pyridin-2-yl]-4-({4-[(trifluoromethyl)sulfonyl]phenyl}amino)-6,7,8,9-tetrahydro-5H-pyrimido[4,5-d]azepin-2-yl}sulfanyl)propan-2-ol] | 190 nM

Same assay, conditions: read-out: Rat IC50; hydrochloride salt

Structure (SMILES) | IC50
FC(F)(F)c1ccc(Nc2nc(N3CCCCC3)nc3c2CCN(c2ncccc2C(F)(F)F)CC3)cc1 [Example 39A, [2-Piperidin-1-yl-7-(3-trifluoromethyl-pyridin-2-yl)-6,7,8,9-tetrahydro-5H-pyrimido[4,5-d]azepin-4-yl]-(4-trifluoromethyl-phenyl)-amine hydrochloride salt] | 23 nM
